Measured values: publication PMC10708468, “New Dipyrroloquinones from a Plant-Derived Endophytic Fungus Talaromyces sp” (Molecules, 2023)
“Also recorded” adds a separate entry of the source. Like-named read-outs stand apart in the source and are kept apart here.

Experiments:
[1] = tested on: human lung cancer cells A549; assay: MTT cytotoxic activity assay, A549; type: cell-based
Procedure: (§1) The 3-(4,5-dimethyl-2-thiazolyl)-2,5-diphenyl-2-h-tetrazole ammonium bromide (MTT) experiment was applied to test the cytotoxic activity for 1–6 against human lung cancer cells A549 and liver cancer cells Hep G2. Cells in RPMI-1640 medium (10% FBS, 0.4% penicillin–streptomycin solution) were digested with trypsin and diluted to the concentration of 1 × 10^4 cells/mL. The cell suspensions were diluted and added into a 96-well microtiter plate with 200 µL per well. The plate was then incubated in a CO2 incubator at 37 °C. Compounds 1–6 were added to the plate wells after 24 h and incubated for 72 h. Adriamycin (ADM) was used as the positive control, and DMSO as the blank control. The MTT solution was added after 72 h incubation, followed by incubation for 4 h. The cells were successively disrupted with 200 µL of DMSO for 10 min after the supernatant liquid was removed. The absorption was measured at 570 nm.

[2] = tested on: liver cancer cells Hep G2; assay: MTT cytotoxic activity assay, Hep G2; type: cell-based; conditions: Homo sapiens
Procedure: as §1

[3] = tested on: LPS-induced NO production in macrophage RAW264.7 cells; assay: Inhibition of LPS-induced NO production (Griess reaction); type: cell-based; conditions: Mus musculus; for IC50: macrophage RAW264.7 cells, given as IC50, read-out: IC50 inhibition of LPS-stimulated NO production
Procedure: (§2) RAW264.7 cells were cultured in DMEM with 10% fetal bovine serum (FBS) and 1% penicillin-streptomycin at 37 °C in 5% CO2. The MTT assay was used to evaluate cell viability. RAW264.7 cells were seeded on 96-well plates at 5 × 10^5 cells/well [26]. After incubation with compounds 1–6 at five concentrations ([…]) for 24 h, cells were treated with MTT (5 mg/mL) at 37 °C for 4 h. Then, the supernatant was removed and the […] was crystalised with DMSO. The absorbance was measured at 570 nm. The Griess reaction was applied to measure the accumulation of NO2^− in culture supernatant. RAW264.7 cells were treated with the compounds for 1 h then with the presence of LPS (1 μg/mL) for 24 h. The culture supernatant fluids (50 µL) and Griess reagent (50 µL) were mixed and incubated at room temperature. The absorbance was read at 570 nm after 15 min.

[4] = tested on: RAW264.7 cells; assay: MTT cell viability of RAW264.7 cells (non-toxic concentrations); type: cell-based; conditions: 24 h
Procedure: as §2

[5] = tested on: PI3K-Akt-mTOR signalling pathway; assay: Western blot analysis of PI3K-Akt-mTOR signalling pathway in A549 cells; type: cell-based, human; conditions: 0.2 and 0.4 μM, 24 h
Procedure: Considering the significant cytotoxicities of penicillixanthone A (4), we evaluated its plausible molecular mechanism in A549 tumour cells using western blot analysis in Figure 5. Compound 4 (0.2 and 0.4 µM) was firstly pretreated for 24 h to test the PI3K expression.
Figure 5 The protein expression of the PI3K-Akt-mTOR signalling pathway of 4 was evaluated by western blot analysis. A549 cells were treated with 4 (0.2 and 0.4 μM) for 24 h, and the expression levels of PI3K, Akt and mTOR were tested by the responsible antibodies. […] Data are represented as the mean ± SD, n = 3, *** p < 0.01 vs. Control.

[6] = A549 cells, MTT, 72 h incubation, read-out: IC50 cytotoxicity A549
[7] = HepG2 cells, MTT, 72 h incubation, read-out: IC50 cytotoxicity HepG2
[8] = LPS (1 μg/mL)-induced NO production in RAW264.7 cells, 24 h, Griess reaction, read-out: EC50

**Q.** For `CC(C)C(=O)c1cc2c([nH]1)C(=O)c1cc([C@H](O)C(C)C)[nH]c1C2=O` [Compound 1, talaroterreusinone A], which IC50 [1, 6] is on record?
**A.** The IC50 was 133 µM.

**Q.** What about the IC50 [2, 7] of the same compound?
**A.** The IC50 was 111 µM.

**Q.** And the EC50 [3, 8]?
**A.** The EC50 was 20.3 µM.

**Q.** And the IC50 [3]?
**A.** Its IC50 is 20.3 µM.

**Q.** What about the “Non-Toxic Concentrations” value [4] of the same compound?
**A.** The value was 3.04 to 304.87 µM.

**Q.** How did the IC50 [1, 6] turn out when `CO[C@@H](c1cc2c([nH]1)C(=O)c1cc([C@H](O)C(C)C)[nH]c1C2=O)C(C)C` [Compound 2, Talaroterreusinone B] was run?
**A.** The IC50 was 98.8 µM.

**Q.** And the IC50 [2, 7]?
**A.** The IC50 was 84.7 µM.

**Q.** What about the EC50 [3, 8] of the same compound?
**A.** Its EC50 is 30.7 µM.

**Q.** And the IC50 [3]?
**A.** The IC50 was 30.7 µM.

**Q.** And the “Non-Toxic Concentrations” value [4]?
**A.** The value was 2.90 to 190.69 µM.

**Q.** `CO[C@H](c1cc2c([nH]1)C(=O)c1cc([C@H](OC)C(C)C)[nH]c1C2=O)C(C)C` [Compound 3, terreusinone D] was tested. Which IC50 [1, 6] did it give?
**A.** The IC50 was 62.7 µM.

**Q.** What about the IC50 [2, 7] of the same compound?
**A.** The IC50 was 57.4 µM.

**Q.** What about the EC50 [3, 8] of the same compound?
**A.** Its EC50 is 20.6 µM.

**Q.** And the IC50 [3]?
**A.** Its IC50 is 20.6 µM.

**Q.** What about the “Non-Toxic Concentrations” value [4] of the same compound?
**A.** Its value is 2.79 to 279.32 µM.

**Q.** With `COC(=O)[C@]12Oc3ccc(-c4ccc(O)c5c4O[C@@]4(C(=O)OC)C(=C(O)C[C@@H](C)[C@@H]4O)C5=O)c(O)c3C(=O)C1=C(O)C[C@@H](C)[C@@H]2O` [Compound 4, penicillixanthone A] as the compound, how does the IC50 ([1]; A549 cell line, read-out: IC50 cytotoxic activity A549) read?
**A.** Its IC50 is 0.212 µM.

**Q.** And the IC50 [1, 6]?
**A.** The IC50 was 0.117 µM.

**Q.** What about the IC50 ([2]; HepG2, Hep G2 cell line, read-out: IC50 cytotoxic activity Hep G2) of the same compound?
**A.** The IC50 was 0.117 µM.

**Q.** What about the IC50 [2, 7] of the same compound?
**A.** Its IC50 is 0.212 µM.

**Q.** What about the EC50 ([3]; RAW264.7, 24 h) of the same compound?
**A.** Its EC50 is 1 µM.

**Q.** What about the phospho-PI3K expression [5] of the same compound?
**A.** Its phospho-PI3K expression is “decrease the phospho-PI3K expression”.

**Q.** And the phospho-mTOR/Akt expression [5]?
**A.** Its phospho-mTOR/Akt expression is “significantly suppressed”.

**Q.** And the “expression of PI3K, Akt and mTOR (PI3K-Akt-mTOR signalling pathway)” value ([5]; p < 0.01 vs. Control)?
**A.** Its value is “inhibiting the PI3K-Akt-mTOR signalling pathway; also recorded: inhibited the expression of PI3K, Akt and mTOR”.

**Q.** How did the IC50 [1, 6] turn out when `CC(O)Cc1cc(O)c2c(c1)C(=O)c1cc(O)cc(O)c1C2=O` (centres unmarked) [Compound 5, isorhodoptilometrin] was run?
**A.** Its IC50 is over 150 µM.

**Q.** And the IC50 [2, 7]?
**A.** The IC50 was over 150 µM.

**Q.** What about the EC50 [3, 8] of the same compound?
**A.** Its EC50 is 121 µM.

**Q.** What about the “Non-Toxic Concentrations” value [4] of the same compound?
**A.** Its value is 3.18 to 318.47 µM.

**Q.** Which IC50 [1, 6] does the source give for `C/C1=C\Cc2c(cc(O)c3c2C[C@@H](C)OC3=O)OC(C)(C)[C@@H](O)CC/C(C)=C/CC1` [Compound 6, chrysomutanin] here?
**A.** The IC50 was 42.5 µM.

**Q.** What about the IC50 [2, 7] of the same compound?
**A.** The IC50 was 43.9 µM.

**Q.** And the EC50 [3, 8]?
**A.** Its EC50 is 142 µM.

**Q.** What about the “Non-Toxic Concentrations” value [4] of the same compound?
**A.** Its value is 2.41 to 241.54 µM.

**Q.** For `COc1cccc2c1C(=O)c1c(O)c3c(c(O)c1C2=O)C[C@@](O)(C(=O)CO)C[C@@H]3O[C@H]1C[C@H](N)[C@H](O)[C@H](C)O1` [adriamycin, Adriamycin, reference compound], which IC50 [1, 6] is on record?
**A.** Its IC50 is 3.5 µM.

**Q.** What about the IC50 [2, 7] of the same compound?
**A.** Its IC50 is 1.2 µM.

**Q.** `Oc1ccc(/C=C/c2cc(O)cc(O)c2)cc1` [resveratrol, reference compound] was tested. Which EC50 [3, 8] did it give?
**A.** Its EC50 is 1.6 µM.

**Q.** What about the “Non-Toxic Concentrations” value [4] of the same compound?
**A.** Its value is 0.43 to 109.52 µM.
